From patent US12371453B2, “Polypeptide having antibacterial activity, composition for preventing or treating sepsis comprising same, and antibacterial composition” (priority 2019, dated 2025)
Converted amounts (≈) assume the structure as drawn. Square brackets hold non-standard residues; d marks the D form. Ends that are not written are not given here. Peptide text beside a SMILES is read from it.

Columns and labels:
[1] = LPS binding affinity by Isothermal Titration Calorimeter (ITC); design: species or system E. coli K1; details: for LPS binding affinity (in words): compared with FP1 (wild type, WT); for Kd: peptide binding to LPS, read-out: Kd (calculated by ITC)
Text: FPT (ADK 44-54) is denoted by wild type (WT), and peptides in which a point mutation occurred at various sites in WT were manufactured (FP3, FP5, FP6, and FP9). To increase the interaction with LPS in a residue sequence of FP3, peptides were designed based on FP3- and LPS-binding models (FP12-NH2 and FP13-NH2), and peptides were designed by additionally introducing a non-natural amino acid and an amino acid isomer (allomeric D-type amino acid) (allD FP12-NH2, allD FP13-NH2, allD FP-13-9a, allD FP-13-9w, allD FP-13-9k, and allD FP13-NH2 (AcOH)). In addition, an N-terminus PEGylated peptide (PEG-alld FP13-NH2 (AcOH)) was additionally designed, synthesized, and provided by ANYGEN, Co. Ltd. The binding affinity between each of the provided peptides and lipopolysaccharide (LPS) was confirmed through measuring the binding affinity (Kd) using Isothermal Titration Calorimeter (ITC).
Specifically, a method of analyzing binding affinity (Kd) between a peptide and LPS is as follows.
Measurement was carried out using a Malvern MicroCal PEAQ-ITC cell instrument, and the following pretreatment was carried out to confirm interaction with LPS. The amount and morphology of a sample cell are 300 μL and coin-shaped, fixed-in-place, respectively; a syringe rotation rate was 1,200 rpm; and a temperature was 30° C., 35° C. or 25° C.
Before the experiment, LPS and the peptide were previously diluted with PBS, thereby preparing 2 mM LPS and 0.2 mM peptide. 300 μL of the peptide was added into cells in the ITC instrument, which had been washed, and 40 μL of LPS was put into a syringe. After measurement conditions for ITC (temperature, number of injections) were set, the syringe was inserted into the cell, and ITC measurement was started. When the measurement was completed, analysis is performed, and the Kd values of LPS and the peptide were calculated.

CR-Klebsiella pneumoniae = details: CR-
Protocol: (§1) The antibacterial activity was evaluated according to an antibacterial activity test method for measuring the minimum inhibitory concentration 50 (MIC50; the minimal concentration that kills 50% of bacteria).
(§2) More specifically, 100 μL of a medium was dispensed into each well of a 96-well plate, and in the first column, an antibiotic and a peptide in 200 μL of the medium were dispensed. 1/2 serial dilution was performed from columns 1 to 11 and five types of antibiotic-resistant bacteria (ESBL-resistant E. coli, carbapenem-resistant A. baumannii, carbapenem-resistant Klebsiella pneumoniae, carbapenem-resistant Pseudomonas aeruginosa, colistin-resistant Acinetobactor baumannii), which had been previously cultured, were diluted (OD600 nm value in dilution: approximately 0.0025) and dispensed into each well. The plate was incubated in a 37° C. incubator for 4 hours, and measured at OD600 nm.

[2] = test system: Colistin resistant AB (Acinetobactor baumannii)
Protocol: as §1, §2

ESBL (E. coli) = details: ESBL
Protocol: as §1, §2

[3] = test system: Carbapenem resistant (CR)-Acinetobactor baumannii; assay: organism not typed
Protocol: as §1, §2

E. coli = type: cell-based
A. baumannii = type: cell-based
[4] = Calcein dye leakage from liposome mimicking gram-negative bacterial cell membrane; type: biochemical; details: calcein-encapsulated liposome
Protocol: (§3) To study an action mechanism for FP12-NH2, FP13-NH2, allD FP12-NH2, and allD FP13-NH2 peptides, the disruption ability of the peptides against liposomes mimicking a bacterial cell membrane and a red blood cell membrane was measured.
(§4) EYPG is an abbreviation for egg yolk L-α-phosphatidyl-DL-glycerol, and EYPC is an abbreviation for egg yolk 1,2-diacyl-sn-glycero-3-phosphocholine. CH is an abbreviation for cholesterol. After dissolving the phospholipids composed according to the content of each component in chloroform, the chloroform was removed using a rotary evaporator, and lyophilization was performed overnight. Afterward, the dried lipid film was dissolved in a Tris-buffer solution, and calcein […]. After repeated freezing and thawing, the calcein-encapsulated liposome was manufactured using an extruder. Subsequently, after an excitation wavelength of a spectrofluorimeter (Shimadzu RF 5301 PC spectrofluorimeter, Japan) was set to 490 nm, and an emission wavelength was set to 520 nm, the peptide was administered to the liposome to measure relative dye leakage, provided that a 100% dye leakage was expressed as fluorescence intensity when 0.010% Triton-X100 was added.
(§5) The upper graphs of FIG. 3 show the % dye leakage for an EYPC/EYPG (7:3, w/w) liposome mimicking bacterial cells, encapsulating a fluorescent dye, calcein, by a peptide according to a peptide concentration. […] The lower graphs of FIG. 3 show the % dye leakage for an EYPC/CH (10:1, w/w) liposome, which is […] mimicking a human red blood, encapsulating a fluorescent dye, calcein, by a peptide according to a peptide concentration.

[5] = Calcein dye leakage from liposome mimicking human red blood cell membrane; type: biochemical; details: calcein-encapsulated liposome
Protocol: as §3, §4, §5

[6] = Calcein dye leakage from liposome mimicking gram-positive bacterial cell membrane; type: biochemical; details: calcein-encapsulated liposome
Protocol: To study the action mechanisms for FPT2-NH2, FPT3-NH2, allD FPT2-NH2, and allD FP13-NH2 peptides, the disruption ability of the peptides against a liposome mimicking a bacterial cell membrane was measured.

[7] = test system: trypsin, protease K, and chymotrypsin; details: read out by antibacterial activity
[8] = In vivo toxicity, survival rate (Example 9); design: species or system ICR mice; details: mouse, ip, mice, intraperitoneal six times, survival for 72 hours
Protocol: To confirm the therapeutic and pharmaceutical effects of an acetate salt substitution of allD FP13-NH2, a septic animal model induced by intraperitoneally administering each of the Escherichia coli (standard strain and ESBL) strains or a normal mouse was treated with the peptide allD FP13-NH2 (AcOH). The antibiotic effect, the toxicity, and the inhibitory activity of […] cytokine IL-6 of the salt substitution with those of the same peptide at the end of trifluoroacetic acid (TFA) were compared.
Six-week-old female ICR mice (SPF mice, Samtako) with an average body weight of 25 g were used as experimental animals. The experimental animals were provided with sterile feed and water and bred with less than 10 mice per cage, and a day/night cycle was 12 hours.
To evaluate in vivo toxicity, the mice were divided into groups (n=5 or 6 per group) per experiment, and intraperitoneally treated six times with allD FP13-NH2 (TFA) and allD FP13-NH2 (AcOH) mixed with […]'S DEX solution (vehicle) at 0, 1, 2, 3, 4, or 5 hours, followed by observing a survival rate at intervals of 12 hours for 72 hours.

Molecule: CC(C)C[C@@H](NC(=O)[C@H](N)CCCNC(=N)N)C(=O)N[C@H](CCCNC(=N)N)C(=O)N[C@@H](C(=O)N[C@H](CCCCN)C(=O)N[C@H](CC(C)C)C(=O)N[C@H](CCCNC(=N)N)C(=O)N[C@H](CCCNC(=N)N)C(=O)N[C@H](Cc1ccc(O)cc1)C(=O)N[C@H](CC(C)C)C(=O)N[C@H](CCCNC(=N)N)C(N)=O)C(C)C [allD FP12-NH2] (H-[dR][dL][dR][dV][dK][dL][dR][dR][dY][dL][dR]-NH2; N-terminus assumed)
- LPS binding affinity (in words) [1]: strong LPS binding affinity
- Kd [1]: 26.6 µM
- MIC50, CR-Klebsiella pneumoniae (CR-Klebsiella pneumoniae): <32 µg/mL
- MIC50, Colistin resistant AB [2]: <16 µg/mL
- MIC50, ESBL (E. coli) (ESBL (E. coli)): <0.5 µg/mL
- MIC50, Carbapenem resistant (CR)-Acinetobactor baumannii [3]: <4 µg/mL
- MIC50 (E. coli): 2 µM (≈ 3.06 µg/mL)
- MIC90 (E. coli): 4 µM (≈ 6.11 µg/mL)
- MIC50 (A. baumannii): 4 µM (≈ 6.11 µg/mL)
- MIC90 (A. baumannii): 8 µM (≈ 12.2 µg/mL)
- dye leakage, PC/PG (7:3, w/w) liposome mimicking a bacteria cell membrane [4]: high dye leakage
- dye leakage, PC/CH liposome mimicking a red blood cell membrane [5]: almost no dye leakage
- dye leakage, EYPG/EYPC (6:4, w/w) liposome mimicking gram-positive bacterial cell membrane [6]: high dye leakage
- MIC50 (S. aureus): 4 µM (≈ 6.11 µg/mL)
- MIC90 (S. aureus): 8 µM (≈ 12.2 µg/mL)
- resistance to the proteolytic enzyme [7]: much improved resistance

Molecule: CC(C)C[C@@H](NC(=O)[C@H](N)CCCCN)C(=O)N[C@H](CCCNC(=N)N)C(=O)N[C@@H](C(=O)N[C@H](CCCCN)C(=O)N[C@H](CC(C)C)C(=O)N[C@H](CCCNC(=N)N)C(=O)N[C@H](CCCNC(=N)N)C(=O)N[C@H](Cc1ccc(O)cc1)C(=O)N[C@H](CC(C)C)C(=O)N[C@H](CCCNC(=N)N)C(N)=O)C(C)C [allD FP13-NH2 (AcOH)] (H-[dK][dL][dR][dV][dK][dL][dR][dR][dY][dL][dR]-NH2; N-terminus assumed)
- MIC50, CR-Klebsiella pneumoniae (CR-Klebsiella pneumoniae): <32 µg/mL
- MIC50, Colistin resistant AB [2]: <16 µg/mL
- MIC50, ESBL (E. coli) (ESBL (E. coli)): <1 µg/mL
- MIC50, Carbapenem resistant (CR)-Acinetobactor baumannii [3]: <1 µg/mL
- LD50 [8]: 80 mg/kg

Molecule: RLRVKLRRYLR-NH2 [FP12-NH2]
- LPS binding affinity (in words) [1]: strong LPS binding affinity
- Kd [1]: 0.242 µM
- MIC50, CR-Klebsiella pneumoniae (CR-Klebsiella pneumoniae): <8 µg/mL
- MIC50, Colistin resistant AB [2]: <16 µg/mL
- MIC50, ESBL (E. coli) (ESBL (E. coli)): <0.5 µg/mL
- MIC50, Carbapenem resistant (CR)-Acinetobactor baumannii [3]: <4 µg/mL
- dye leakage, PC/PG (7:3, w/w) liposome mimicking a bacteria cell membrane [4]: high dye leakage
- dye leakage, PC/CH liposome mimicking a red blood cell membrane [5]: almost no dye leakage
- dye leakage, EYPG/EYPC (6:4, w/w) liposome mimicking gram-positive bacterial cell membrane [6]: high dye leakage

Molecule: KLRVKLRRYLR-NH2 [FP13-NH2]
- LPS binding affinity (in words) [1]: strong LPS binding affinity
- Kd [1]: 118 µM
- MIC50, CR-Klebsiella pneumoniae (CR-Klebsiella pneumoniae): <16 µg/mL
- MIC50, Colistin resistant AB [2]: <32 µg/mL
- MIC50, ESBL (E. coli) (ESBL (E. coli)): <1 µg/mL
- MIC50, Carbapenem resistant (CR)-Acinetobactor baumannii [3]: <8 µg/mL
- dye leakage, PC/PG (7:3, w/w) liposome mimicking a bacteria cell membrane [4]: high dye leakage
- dye leakage, PC/CH liposome mimicking a red blood cell membrane [5]: almost no dye leakage
- dye leakage, EYPG/EYPC (6:4, w/w) liposome mimicking gram-positive bacterial cell membrane [6]: high dye leakage
